In PubChem BioAssay AID179 (DTP/NCI, 2004):
Calls of active or inactive are those of the source.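 The calls were made as follows: active = compounds giving half or more protection of infected cells from virus-caused growth loss, again on retest; inactive = the rest.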

System: CEM cells HIV-1 protection, formazan growth assay
Assay: NCI AIDS Antiviral Assay
Settings: for IC50: measured here: growth of uninfected CEM cells
Outline: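 Protection of CEM cells against HIV-1 measured as cell growth via soluble formazan read-out, with five concentrations tested on both infected and uninfected cells; failure to protect may reflect toxicity.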

Compound: O=C(NC1CCC(CC2CCC(NC(=O)c3cc(O)c(O)c(O)c3)CC2)CC1)c1cc(O)c(O)c(O)c1 (stereo not drawn)
- EC50: > 100 µM
- IC50: 10.5 µM

Compound: COC(=O)Sc1c2sc(C(=O)OC)c(C)c2n2ccccc12
- outcome: inactive

Compound: Nc1nc(Cl)c(Cl)c(NCC2(O)CCC2)n1
- EC50: > 200 µM
- IC50: 20.9 µM

Compound: CN1C2=CC=CC=CC2=[N+](C)C1C(=C=[N-])C#N (stereo not drawn)
- EC50: > 363 µM
- IC50: 245 µM

Compound: CC1(C)OCC(COC(=O)C=[N+]=[N-])O1 (stereo not drawn)
- EC50: > 200 µM
- IC50: > 200 µM

Compound: COCOC1C(=O)N(c2ccccc2)[C@@H]1c1ccccc1 (stereo partly drawn)
- EC50: > 91.2 µM
- IC50: > 91.2 µM

Compound: CC1=CC(=C(c2cc(C)c(O)c(C(=O)O)c2)c2cc(C)c(O)c(C(=O)O)c2)C=C(C(=O)O)C1=O
- outcome: inactive

Compound: C[PH+](C)CC[PH+](C)CC[PH+](C)C.[C-]#[O+].[C-]#[O+].[C-]#[O+].[Cr]
- EC50: > 2.88 µM
- IC50: > 2.88 µM

Compound: O=C(CCN1CCCCC1CO)Nc1ccc2c(c1)C(=O)c1ccc(NC(=O)CCN3CCCCC3CO)cc1C2=O (stereo not drawn)
- EC50: > 200 µM
- IC50: 3.16 µM

Compound: O=C1N2CCNc3ccccc3C(c3ccccc3)N1CC2 (stereo not drawn)
- EC50: > 200 µM
- IC50: 18.6 µM

Compound: SC1N=C(c2ccccc2)N2C(S)N=C(c3ccccc3)N12 (stereo not drawn)
- EC50: > 200 µM
- IC50: 83.2 µM

Compound: CN=c1ssc(=S)n1C(C)C
- EC50: > 200 µM
- IC50: 16.2 µM

Compound: CNC1C(OC2C(OC3C(O)C(O)C(N=C(N)N)C(O)C3N=C(N)N)OC(C)C2(O)C=O)OC(CO)C(OC2OC(CO)C(O)C(O)C2O)C1O (stereo not drawn)
- outcome: inactive

Compound: CN=c1ss/c(=N\C(=S)N(C)C)n1C1CCCCC1
- outcome: inactive

Compound: Cc1c(C(=O)C/C(=N\O)C(=O)Nc2cc(Cl)c(Cl)cc2Cl)[n+](=O)c2ccccc2n1[O-]
- EC50: > 14.8 µM
- IC50: > 14.8 µM

Compound: CCCCCCCCCCCCCCCC[N+](C)(C)Cc1ccc(C[N+](C)(C)CCCCCCCCCCCCCCCC)cc1
- outcome: inactive

Compound: Cc1nnc(Sc2nc(C#N)c(C#N)nc2Sc2nnc(C)s2)s1
- EC50: > 200 µM
- IC50: 8.13 µM

Compound: O=c1ccc2ccc3occc(=O)c3c2o1
- EC50: > 120 µM
- IC50: 102 µM

Compound: O=c1[nH]ncc2c1nnn2C1CCC(CO)O1 (stereo not drawn)
- EC50: > 200 µM
- IC50: > 200 µM

Compound: CC1=NN2C(c3ccc([N+](=O)[O-])cc3)=CSC2=NC(C)(C)C1
- EC50: > 158 µM
- IC50: > 158 µM

Compound: Cc1ccc2c(c1)N=C(Nc1ccccc1)N=S2(C)=O (stereo not drawn)
- outcome: inactive

Compound: C[C@@H](CC(=O)OCc1ccccc1)OC1OC(COC(=O)C(C)(C)C)C(OC(=O)C(C)(C)C)C(OC(=O)C(C)(C)C)C1OC(=O)C(C)(C)C (stereo partly drawn)
- EC50: > 200 µM
- IC50: > 200 µM

Compound: COc1ccc(CNc2nc3cc(C(F)(F)F)ccc3nc2C)cc1OC
- EC50: > 19.1 µM
- IC50: 14.5 µM

Compound: CC(=O)C1CC[C@@H](C)[C@@H]2CC[C@@]3(C)OO[C@@]12[C@H](OC=O)O3 (stereo partly drawn)
- EC50: > 200 µM
- IC50: 27.5 µM

Compound: CC(/C=C/C(O)=C1/C(=O)CNC1=O)=C\[C@@H](C)[C@H]1O[C@@]2(C)O[C@H](C(=O)[C@@H]3O[C@@]32C)[C@@H]1C
- EC50: > 200 µM
- IC50: 91.2 µM

Compound: CN(C)c1ccc(/C=C(\C#N)c2c(Br)cccc2Br)cc1
- EC50: > 200 µM
- IC50: 4.17 µM

Compound: S=C1CSc2c(ccc3ccccc23)N1
- EC50: > 200 µM
- IC50: 141 µM

Compound: NCCOc1c2occc2cc2ccc(=O)oc12
- EC50: > 275 µM
- IC50: 20.4 µM

Compound: Cc1ccccc1N(C)S(=O)(=O)c1ccccc1[N+](=O)[O-]
- EC50: > 200 µM
- IC50: 38.9 µM

Compound: COC(=O)c1c(-c2ccccc2)sc(-c2cccc3ccccc23)c1C(=O)OC
- outcome: inactive

Compound: CC(=O)OC1CSc2ccccc2N(C(C)=O)C1 (stereo not drawn)
- EC50: > 355 µM
- IC50: > 355 µM

Compound: CCCC[N+](CCCC)=c1cc(-c2ccc(Cl)cc2)ss1
- EC50: > 20 µM
- IC50: 0.708 µM

Compound: CC1c2c(Cl)nc3ccccc3c2Oc2c1c(Cl)nc1ccccc21
- EC50: > 14.1 µM
- IC50: > 14.1 µM

Compound: COc1ccc2c(-c3ccc(OCCN(C)C)cc3)c(Oc3ccccc3)c(=O)oc2c1
- EC50: > 200 µM
- IC50: 7.08 µM

Compound: CCN(CC(O)COc1ccc2c(c1)[n+]([O-])nc(N)[n+]2[O-])C(C)=O (stereo not drawn)
- EC50: > 200 µM
- IC50: 23.4 µM
